Measurements reported in patent US10280174B2, “Salt of fused pyrimidine compound and crystal thereof” (TAIHO PHARMACEUTICAL CO., LTD., priority 2015, dated 2019).

Key:
[1] = biological target: recombinant human BTK protein (Homo sapiens (Human), UniProt Q06187); assay: Measurement of BTK inhibitory activity (in vitro); type: biochemical; conditions: ATP 45 μM, FL-Peptide 2 substrate
Text: In a condition set for a method of measuring inhibitory activity in vitro of the compounds against BTK kinase activity, FL-Peptide 2 was used as a substrate, since it was described in a price list of LabChip (Registered trademark) series sample consumables of PerkinElmer Co., Ltd. that FL-Peptide 2 corresponded to a substrate peptide in a measurement of BTK kinase activity. The refined recombinant human BTK protein used in the test was purchased from Carna Biosciences, Inc.
With regard to the measurement of the inhibitory activity of the compounds, firstly, monofumarate of Compound A was diluted stepwise with dimethyl sulfoxide (DMSO). Subsequently, BTK protein, a substrate peptide (final concentration was 1 μM), magnesium chloride (final concentration was 10 mM), ATP (final concentration was 45 μM), and a DMSO solution of the test compounds (final concentration of DMSO was 5%) were added to a buffer solution for kinase reaction (20 mM HEPES (pH 7.5), 2 mM dithiotheitol, 0.01% Triton X-100), and after the solution was incubated for 40 minutes at 25° C., a kinase reaction was carried out. […] Finally, a substrate peptide that was not phosphorylated (S) and a phosphorylated peptide (P) were separated and detected by microchannel capillary electrophoresis with a LabChip EZ Reader II (PerkinElmer, Inc.). […]

[2] = system: recombinant human EGFR protein / BTK; assay: BTK inhibition selectivity compared with EGFR kinase inhibitory activity (in vitro); type: biochemical
Description: 1) Measurement of BTK Inhibitory Activity
2) Measurement of EGFR Inhibitory Activity
Therefore, a biotinated peptide (biotin-[…]) was produced by referring to the amino acid sequence of the peptide. The purified recombinant human EGFR protein used in the test was purchased from Carna Biosciences, Inc.
The reaction was terminated by adding EDTA thereto so as to obtain a final concentration of 24 mM. Subsequently, a detection liquid containing Eu-labeled anti-phosphotyrosine antibody PT66 (PerkinElmer, Inc.) and […] APC-SA (PerkinElmer, Inc.) was added thereto, and the system was left to stand for 2 hours or longer at room temperature. […] 3) BTK Inhibition Selectivity

A431 cells / TMD8 cells = assay: Proliferation inhibitory activity against cell lines expressing BTK and EGFR, and selectivity; type: cell-based, human
Text: TMD8 cells, which are of a diffuse large B-cell lymphoma cell line expressing BTK, were suspended in RPMI1640 medium (manufactured by Life Technologies Corp.) containing 10% fetal bovine serum. A431 cells, which are of an EGFR-overexpressing, highly activated human epidermoid carcinoma cell line, were suspended in DMEM, high glucose medium (manufactured by Life Technologies Corp.) containing 10% fetal bovine serum. The cell suspensions were inoculated into each well of 384-well flat-bottomed microplates, and the cells were cultured for 1 day at 37° C. in an incubator containing 5% carbon dioxide gas. […] A DMSO solution of the test compounds was diluted with the medium used in the suspension of the each cell, and this was added to each of the wells of the cell culture plates such that the final concentration of DMSO would be 0.2%. The cells were further cultured for 3 days at 37° C. in an incubator containing 5% carbon dioxide gas. […] Proliferation inhibition ratio (%)=(C−T)/(C−C0)×100
C0: Luminescence intensity of a well measured before the addition of the test compound

recombinant human BTK protein, sequence (Q06187 whole entry): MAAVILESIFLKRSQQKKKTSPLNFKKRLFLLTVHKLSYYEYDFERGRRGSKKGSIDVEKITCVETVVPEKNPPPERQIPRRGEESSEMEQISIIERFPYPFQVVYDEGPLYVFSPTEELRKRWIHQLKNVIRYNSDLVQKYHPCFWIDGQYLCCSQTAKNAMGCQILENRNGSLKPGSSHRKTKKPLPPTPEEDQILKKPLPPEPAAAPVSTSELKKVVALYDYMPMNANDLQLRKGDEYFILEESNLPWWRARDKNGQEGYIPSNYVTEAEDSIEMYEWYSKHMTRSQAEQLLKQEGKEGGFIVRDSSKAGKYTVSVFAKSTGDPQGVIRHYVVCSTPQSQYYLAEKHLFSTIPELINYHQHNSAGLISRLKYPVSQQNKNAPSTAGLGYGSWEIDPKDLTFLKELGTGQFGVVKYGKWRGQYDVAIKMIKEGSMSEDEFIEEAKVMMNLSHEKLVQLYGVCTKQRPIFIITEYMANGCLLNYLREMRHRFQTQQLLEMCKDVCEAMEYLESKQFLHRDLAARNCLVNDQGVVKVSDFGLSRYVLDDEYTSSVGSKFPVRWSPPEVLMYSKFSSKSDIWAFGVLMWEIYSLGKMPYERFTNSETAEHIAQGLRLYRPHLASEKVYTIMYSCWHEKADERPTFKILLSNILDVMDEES

- IC50 [1]: 1.19 nM
- BTK inhibition selectivity against EGFR kinase relative to Comparative compound 1 ([2]; in vitro kinase): about 13 times
- EGFR inhibitory activity IC50 value (nM)/BTK inhibitory activity IC50 value (nM) ([2]; selectivity ratio): 16.90
Compound: C=CC(=O)N1CCC[C@@H](n2nc(C(=O)Nc3nc4ccccc4o3)c3c(N)ncnc32)C1.O=C(O)/C=C/C(=O)O [monofumarate of Compound A, (R)-1-(1-acryloylpiperidin-3-yl)-4-amino-N-(benzo[d]oxazol-2-yl)-1H-pyrazolo[3,4-d]pyrimidine-3-carboxamide.monofumarate]
- BTK inhibition selectivity in the cell proliferation inhibition ratio relative to Comparative compound 1 (A431 cells / TMD8 cells; A431/TMD8): about 65 times
- A431 cell proliferation inhibition ratio/TMD8 cell proliferation inhibition ratio (A431 cells / TMD8 cells; GI50 based, 3 days culture, CELLTITER GLO): 7643
